Earlier results on one compound are cited in patent US20250161331A1, “ANTI-INFLAMMATORY DRUG-CANNABINOID-COMPRISING NANOEMULSIONS AND METHODS OF USING THE SAME” (SGN Nanopharma Inc., priority 2022, published 2025).

Like-named read-outs stand apart in the source and are kept apart here.

For `C=C(C)[C@@H]1CCC(C)=C[C@H]1c1c(O)cc(CCCCC)cc1O` [CBD, Cannabidiol], the CBD concentrations decreased result reads like this: (cannabis oil formulations, same timeframe (3-7 days)) “up to 38%”; (solution as a tea, room temperature, 3-7 days) at most 50%.
